Measured values from patent publication US20140128357A1, “METHODS OF PRODUCING AND USING BRASSINOSTEROIDS TO PROMOTE GROWTH, REPAIR AND MAINTENANCE OF SKELETAL MUSCLE AND SKIN” (Rutgers University, priority 2010, published 2014).
Read-outs that look alike come from different tables or passages of the source.

How the values were obtained:
[1] = test system: AKT (Ser473) phosphorylation in L6 myotubes; assay: AKT (Ser473) phosphorylation, Western blot; assay type: cell-based, rat; conditions: for activation of AKT: after 1 h
Method: In some aspects, Western blot analyses were carried out. Fully differentiated L6 myotubes were cultured as described above, and whole cell extracts were prepared in ice-cold RIPA buffer supplemented with 10 mM sodium fluoride, 2 mM sodium orthovanadate, 1 mM PMSF, and protease inhibitor cocktail (Sigma) and centrifuged at 12,000 g for 20 min at 4° C. Equal amounts of protein (50 μg) from the supernatants were separated on 10% SDS polyacrylamide gels and blotted onto the nitrocellulose membrane. Western blot detection was carried out with monoclonal phospho-AKT (Ser473) antibodies according to the manufacturer's instructions (Cell Signaling Technology, Danvers, Mass.). After being washed, the blots were incubated with an anti-rabbit peroxidase-labeled secondary antibody and visualized using ECL Western Blotting Detection Reagent (GE Healthcare, Piscataway, N.J.). After being stripped, the same blots were probed with total AKT antibodies to serve as loading controls.

L6 rat myotubes [2] = assay: Protein degradation, release of acid-soluble [3H]-phenylalanine; assay type: cell-based; conditions: 10 μM; for Protein degradation (% decrease over control): 4 h
Method: In some aspects, cell culture experiments were carried out. Rat L6 skeletal muscle cell line CRL-1458 was obtained from ATCC (Manassas, Va.). Myoblasts were routinely maintained in Dulbecco's modified Eagle's medium (DMEM) containing 10% FBS and 0.1% penicillin-streptomycin at 37° C. and 5% CO2. Cells were subcultured into 24-well plates for protein synthesis, degradation, and cell viability studies and into 6-well plates for Western blot analyses (Greiner Bio One, Monroe, N.C.). Once cells reached 90% confluence, differentiation was induced by lowering the serum concentration to 2%, and medium was changed every 2 days. […] NIH 3T3 murine embryonic fibroblast cell line (ATCC #CCL-92) was maintained in DMEM and 10% FBS at 37° C. in 5% CO2, and passaged every 3-4 days.
In various aspects, protein degradation is measured to determine the effect of brassinosteroid on a particular protein. All known methods for measuring protein degradation are included in the methods of the disclosure. The effect of brassinosteroids on protein degradation was investigated in fully differentiated myotubes as described by Fawcett et al. (Arch. Biochem. Biophys. 385:357-363, 2001) with slight modifications. Fully differentiated myotubes were incubated for 16 h to allow labeling of cellular proteins with 1.5 μCi/mL [^3H]-phenylalanine. […] The incubation was stopped by placing the cells on ice, and protein in the medium was precipitated with 5% trichloroacetic acid. Specific radioactivity of protein-free phenylalanine was quantified using liquid scintillation counter LS 6500 (Beckman Coulter, Fullerton, Calif.) and normalized to mg of total cell protein determined by BCA protein assay (Pierce Biotechnology, Rockford, Ill.).
The bioactivity of HB and its analogs (as shown in Table 3) were also evaluated by measuring decreases in protein degradation in the L6 rat skeletal muscle cells in vitro. Cells were labeled overnight with [^3H]-phenylalanine and subsequently treated for 4 h in triplicate with vehicle (0.1% ethanol) or test compound (10 μM), and protein degradation was assessed as release of acid-soluble [^3H]-phenylalanine into the media normalized by total protein (Table 3).

L6 rat myotubes [3] = assay: as above; assay type: cell-based; conditions: for decrease in protein degradation vs control levels: 1 μM, 4 h
[4] = test system: NIH 3T3 murine fibroblast cell line; assay: Cytotoxicity, MTT assay in 3T3 fibroblasts; assay type: cell-based, mouse
Method: FIG. 9. Cell survival curves as measured by MTT assay for brassinosteroids 1-9 against the murine fibroblast cell line NIH-3T3. Cells were incubated with various concentrations of brassinosteroids (0.3-30 μM) for 24 h at 37° C. The mean absorbance of the control cells represented 100% cell proliferation, and the mean absorbance of treated cells was related to control values to determine sensitivity. Error bars represent standard error (n=6) from mean cell proliferation as determined by repeated experiments.
In various aspects, cell viability is measured and the effects of doses of compound and test reagents are tested in cell lines. In some aspects, cell viability was measured by the MTT (3-(4,5-Dimethylthiazol-2-yl)-2,5-diphenyltetrazolium bromide) assay in triplicate (Mosmann et al., J. Immunol. Methods 65:55-63, 1983) and quantified spectrophotometrically at 550 nm using a microplate reader (Molecular Devices, Sunnyvale, Calif.).
3T3 fibroblasts were seeded in a 96-well flat bottom plate at a density of 1×10^4 cells/well. Cell viability was measured by an MTT (3-(4,5-Dimethylthiazol-2-yl)-2,5-diphenyltetrazolium bromide) assay in triplicate (0.3-30 μM of test substance for […]) essentially as described by Mosmann (J. Immunol. Methods 65, 55-63, 1983) and quantified spectrophotometrically at 550 nm using a microplate reader (Molecular Devices, Sunnyvale, Calif.). […] For cell proliferation studies, cells were treated in triplicate with 0.1-10 μM of test substance for 24 h and assayed using a BrdU (5-bromo-2′-deoxyuridine) kit from Amersham (Uppsala, Sweden).

Row | Compound | time to AKT phosphorylation [1] [min] | stimulation of Ser473 phosphorylation of AKT ([1]; 3 μM, 1 h) | activation of AKT [1] | Protein degradation (% decrease over control) (L6 rat myotubes [2]) [%] | decrease in protein degradation vs control levels (L6 rat myotubes [2]; 4 h (FIG. 2C)) [%] | decrease in protein degradation vs control levels (L6 rat myotubes [3]) [%] | time at which suppression of protein degradation reached a plateau (L6 rat myotubes [3]; 3 μM HB, 1-4 h study) [h] | IC50 ([4]; 3T3 mouse fibroblasts, MTT, 0.3-30 μM, read-out: Cell cytotoxicity, IC50) [µM] | cytotoxicity in vitro ([4]; tested up to 30 μM) | concentration at which inhibition of protein degradation reached a plateau (L6 rat myotubes [3]; 4 h dose response) [µM] | effect of structural modification on protein degradation activity, in words (L6 rat myotubes [2]) | IC50 [4] [µM] | IC50 ([4]; 3T3/NIH murine fibroblasts, MTT, 24 h (FIG. 9), read-out: half-maximal inhibitory concentration (IC50), cell proliferation) [µM]
1 | CC[C@@H](C(C)C)[C@H](O)[C@@H](O)[C@@H](C)[C@H]1CC[C@H]2[C@@H]3COC(=O)[C@H]4C[C@H](O)[C@H](O)C[C@]4(C)[C@H]3CC[C@]12C [Compound 1, (22S,23S,24S)-2α,3α,22,23-tetrahydroxy-24 ethyl-β-homo-7-oxo-5α-cholestane-6-one] | 30 | up to 3 fold | significant activation of AKT | −24.1 ± 5.5 | 9.5±0.9 | 8.2±0.6 | 3 | > 30 | no cytotoxicity | – | – | – | –
2 | CC[C@@H](C(C)C)[C@H](O)[C@@H](O)[C@@H](C)[C@H]1CC[C@H]2[C@@H]3CC(=O)[C@H]4C[C@H](O)[C@H](O)C[C@]4(C)[C@H]3CC[C@]12C [Compound 2, (22S,23S,24S)-2α,3α, 22,23-tetrahydroxy-24-ethyl-5α-cholestan-6-one] | – | – | significant activation of AKT | −23.1 ± 4.2 | – | 8.7±1.7 | – | – | – | 10 | – | – | –
3 | CC[C@@H](C(C)C)[C@H](O)[C@@H](O)[C@@H](C)[C@H]1CC[C@H]2[C@@H]3CC(=O)N[C@H]4C[C@H](O)[C@H](O)C[C@]4(C)[C@H]3CC[C@]12C [Compound 5, (22S,23S,24S)-2α,3α-22,23-tetrahydroxy-24-ethyl-B-homo-6-aza-5α-cholestan-7-one] | – | – | – | −13.6 ± 3.8 | – | – | – | – | – | – | only a minor effect on its biological activity | 12.5 | 12.5
